{
  "source": "patent US11179346B2",
  "about": "“Rupatadine-containing patch” (TEIKOKU SEIYAKU CO., LTD., priority 2017, dated 2021)",
  "key": {"[1]": {"assay": "Degree of solubility of rupatadine free base in each plaster ingredient (HPLC method)", "type": "physicochemical", "text": "Test Example 1: Investigation of Degree of Solubility of Rupatadine Free Base in Each Ingredient\nThe degree of solubility of a rupatadine free base (sometimes also referred to as “rupatadine base”) as an active ingredient in each plaster ingredient was investigated.\nLevulinic acid as a solubilizer, oleyl oleate and isopropyl myristate (IPM) as a softener, and lauromacrogol (BL-4,2: polyoxyethylene lauryl ether) as a surfactant were selected. The degree of solubility of the rupatadine base in each ingredient was investigated.\nTo 5 mL of each of levulinic acid, oleyl oleate, isopropyl myristate (IPM), and lauromacrogol (BL-4,2), an excessive amount of the rupatadine base was added and stirred. The mixture was filtered through a 0.45-μm membrane filter, to remove an undissolved substance. To 200 μL of the filtrate, methanol was added using a measuring flask to adjust the volume to a desired volume. The mixture was measured by HPLC.\nA rupatadine concentration was measured by an external calibration curve method, and the degree of solubility was calculated by specific gravity conversion."}, "[2]": {"assay": "Degree of solubility of rupatadine base in acrylic adhesive (gravimetric method, presence or absence of crystal)", "type": "physicochemical", "settings": "in acrylic adhesive (OH group), 100 μm plaster, crystal observed by microscope", "method": "For comparison, the degree of solubility of the rupatadine base in an acrylic adhesive as an adhesive base was also investigated.\nThe degree of solubility of the rupatadine base in the acrylic adhesive was tested by a gravimetric method.\nTo 1 g (solid content) of the acrylic adhesive, the rupatadine base was added, and the mixture was stirred and degassed by ultrasonic wave.\nThe adhesive solution was applied so as to have a thickness of 100 μm, and dried. A plaster was observed by a microscope (manufactured by KEYENCE CORPORATION).\nThe degree of solubility was determined by the presence or absence of crystal."}},
  "data": [
    {"smiles": "Cc1cncc(CN2CCC(=C3c4ccc(Cl)cc4CCc4cccnc43)CC2)c1", "note": "[rupatadine base, 8-chloro-11-[1-[(5-methyl-3-pyridinyl)methyl]-piperidin-4-ylidene]-6,11-dihydro-5H-benzo[5,6]cyclohepta[1,2-b]pyridine]", "values": [
      {"measurement": "Solubility (w/w %)", "setting": "[1]; in isopropyl myristate (softener)", "value": 2, "unit": "w/w %"},
      {"measurement": "Solubility (w/w %)", "setting": "[1]; in lauromacrogol (BL-4,2) (surfactant)", "value": 4, "unit": "w/w %"},
      {"measurement": "Solubility (w/w %)", "setting": "[1]; in levulinic acid (solubilizer)", "value": 29, "unit": "w/w %"},
      {"measurement": "Solubility (w/w %)", "setting": "[1]; in oleyl oleate (softener)", "value": 2, "unit": "w/w %"},
      {"measurement": "Solubility (w/w %)", "setting": "[2]", "value": "≤15 to 16< w/w %"}
    ]}
  ]
}
